This note sets out measurements from patent publication US20010039297A1, “COMPOSITIONS AND METHOD FOR IMPROVING INSULIN SENSIVITY AND GLUCOSE METABOLISM IN INDIVIDUALS WITH IMPAIRED FASTING GLUCOSE OR IMPAIRED GLUCOSE TOLERANCE” (Insmed Pharmaceuticals, Inc., priority 1998, published 2001).

Structures are written as SMILES.

Common to all, as to type: in vivo, human
Assay [1] concerns obese men and women with abnormal glucose tolerance. The assay can be described thus: oral glucose tolerance test before and after treatment, clinical study, subjects with abnormal glucose tolerance. The settings on record: 1200 mg/day for 7 to 14 days. Here is the method: (§1) Impaired glucose tolerance, as defined by the World Health Organization, is determined by the administration of a standard oral glucose tolerance test (OGTT) (World Health Org., Diabetes Mellitus, Tech. Rep. Ser., no. 727 (1985)). During an OGTT, a measured amount of glucose (75 grams) is given to a fasted individual and blood glucose levels are measured every 30 minutes, usually for 2 or 3 hours. In a individual with normal glucose tolerance, the blood glucose values will rise during the first part of the test and then rapidly return to basal levels. In an IGT individual the post prandial glucose levels will rise above the normal range, producing a 2-hour glucose value of 140-199 mg/dL, and return to basal levels at a slow rate.
(§2) A clinical study utilizing D-chiro-inositol was performed in obese men and women with normal and abnormal glucose tolerance. Eighteen volunteers received D-chiro-inositol (1200 mg/day) for 7 to 14 days. An oral glucose tolerance test was performed at the beginning of the study, prior to treatment, and at the end of the study, after D-chiro-inositol treatment.

Assay [2] concerns obese men and women with normal glucose tolerance. The assay can be described thus: oral glucose tolerance test before and after treatment, clinical study, subjects with normal glucose tolerance. The settings on record: eleven volunteers with normal glucose response; 1200 mg/day for 7 to 14 days. Here is the method:
as §1, §2

The subject of a further assay is obese men. Description: tolbutamide-modified frequently sampled intravenous glucose tolerance test (FSIGTT), insulin sensitivity index by minimal model, clinical study. The settings on record: single oral dose 300-1200 mg, fasted, 2 hours before FSIGTT. An excerpt:
The third method of determining insulin sensitivity involves frequently collecting blood samples for glucose and insulin during an intravenous glucose tolerance test, and analyzing the glucose and insulin dynamics using a minimal mathematical model developed by Bergman (Bergman et. al., J. Clin. Invest. 68:1456-1467 (1981)). This test can be modified by the injection of tolbutamide or exogenous insulin to boost the insulin response and improve the correlation with the euglycemic clamp. The FSIGTT provides an accessible way to determine the insulin sensitivity index (S1). The more insulin insensitive a subject is, the lower the calculated S1. As insulin sensitivity is improved, the S1 value is increased—thus a higher S1 value corresponds to greater insulin sensitivity.
A clinical study of D-chiro-inositol was performed in obese men. This was a three phase, double blind, single oral dose crossover study with subjects receiving either D-chiro-inositol (300-1200 mg) or placebo in a randomized crossover fashion. Treatments were administered to subjects in a fasted state 2 hours before the tolbutamide-modified frequently sampled intravenous glucose tolerance test (FSIGTT) began.
The insulin sensitivity index (S1) was derived using the minimal model analysis of plasma glucose and insulin concentrations sampled during a full tolbutamide-modified FSIGTT.

Consider `OC1C(O)C(O)C(O)C(O)C1O` [D-chiro-inositol], for which the “90 and 120 minute glucose values in OGTT” value in assay [1] (abnormal glucose tolerant subjects, p<0.05) is “statistically significant reduction”. Besides, in assay [1] (seven subjects with abnormal, elevated glucose response), the “glucose response to the glucose load (OGTT)” value is recorded as “significantly improved”. In assay [2], the “glucose values during OGTT” value is “not modified”. Besides, in the assay on obese men, the “mean increase in insulin sensitivity” value is 61%. In the assay with obese men (out of 9 subjects), the “subjects demonstrating an increase in insulin sensitivity (S1)” value is recorded as 6 out of 9.
